Earlier results as cited in US20240298642A1, “Herbicidal Compositions Comprising Fluazifop And Triclopyr” (Bayer CropScience LP, priority 2023, published 2024).

Conditions: neat solvent

flash point [°C]	Compound
65	CCCCCCO [Composition 1-hexanol, 1-hexanol]
81	CCCCCCCCO [Composition 1-octanol, 1-octanol]
